# Source: US20240150300A1, “S-CONFIGURATION-CONTAINING AMINO BENZAMIDE PYRIDAZINONE COMPOUND, PREPARATION METHOD THEREFOR, AND PHARMACEUTICAL COMPOSITION AND APPLICATION THEREOF” (SHANGHAI INSTITUTE OF MATERIA MEDICA, CHINESE ACADEMY OF …, priority 2021, published 2024)
# Legend:
# HDAC6 = HDAC6 (Homo sapiens (Human), UniProt Q9UBN7); test: In vitro histone deacetylase activity assay (HTRF), HDAC6; type: biochemical; conditions: H3(1-21) K9Ac biotin substrate
# Method: (§1) Human recombinant HDAC family proteins with His and GST tags were expressed using insect baculovirus expression system, and a biologically active HDAC family recombinant protein was obtained through Ni affinity column protein purification. HTRF detection method was used with H3(1-21) K9Ac biotin as the substrate. […] Briefly, 20 μl of the activity testing system included the HDAC substrate (0.2 μM. 4 μl), the Human Recombinant Protein HDAC (2-5 ng)/μl.
# HCT-116 cells = test: Antiproliferative activity, CCK-8, HCT-116; type: cell-based, human; conditions: 72 h
# Method: (§2) The tumor cells used were purchased from commercial cell banks (HCT116 purchased from ATCC, SKM 1 purchased from JCRB). The growth inhibition of cells was detected using the CCK-8 method. The specific steps were as follows. Cells in the logarithmic growth phase were seeded into a 96 well culture plate at an appropriate density, with 90 μL/well. After overnight cultivation, different concentrations of drugs were added for treatment for 72 h, with each concentration in triplicate, and corresponding concentration of vehicle control and cell-free blank wells were also set. After the treatment, 10 μL of CCK-8 was added to each well and the plate was incubated in an incubator for 2-4 hours, and the optical density (OD value) at a wavelength of 450 nm was measured using a SpectraMax 190 microplate reader. […] The experiment was repeated twice, and the mean value and SD were calculated.
# SKM-1 cells = test: Antiproliferative activity, CCK-8, SKM-1; type: cell-based, human; conditions: 72 h
# Method: as §2
# With reference to HCT-116 cell proliferation inhibition test method, the inhibitory activity of the compounds on the proliferation of human myelodysplastic syndrome cell SKM-1 was tested.
# HDAC3 = HDAC3 (Homo sapiens (Human), UniProt O15379); test: HDAC subtype inhibitory activity (HTRF), HDAC3; type: biochemical
# Method: as §1
# MV-4-11 = test: Antiproliferative activity, CCK-8, MV-4-11; type: cell-based; conditions: MV-4-11, Acute monocyte/Monocyte leukemia; read-out: Cytotoxicity (IC50 μM)
# Method: as §2
# (§3) The testing method for antiproliferative activity was the same as that mentioned in Pharmacological Experiment Example 2, and the results are shown in Table 4 and FIGS. 2-3.
# OCI-AML3 = test: Antiproliferative activity, CCK-8, OCI-AML3; type: cell-based; conditions: OCI-AML3, Human acute myeloid leukemia; read-out: Cytotoxicity (IC50 μM)
# Method: as §2, §3
# CMK = test: Antiproliferative activity, CCK-8, CMK; type: cell-based; conditions: Down syndrome acute megakaryocyte leukemia, read-out: Cytotoxicity (IC50 μM)
# Method: as §2, §3
# OCI-LY-3 = test: Antiproliferative activity, CCK-8, OCI-LY-3; type: cell-based; conditions: OCI-LY-3, Diffuse large B-cell lymphoma; read-out: Cytotoxicity (IC50 μM)
# Method: as §2, §3
# HH = test: Antiproliferative activity, CCK-8, HH; type: cell-based; conditions: Primary cutaneous T-cell non Hodgkin lymphoma, read-out: Cytotoxicity (IC50 μM)
# Method: as §2, §3
# OCI-LY-10 = test: Antiproliferative activity, CCK-8, OCI-LY-10; type: cell-based; conditions: OCI-LY-10, Diffuse large B-cell lymphoma; read-out: Cytotoxicity (IC50 μM)
# Method: as §2, §3
# Z138 = test: Antiproliferative activity, CCK-8, Z138; type: cell-based; conditions: Z138, Human mantle cell lymphoma; read-out: Cytotoxicity (IC50 μM)
# Method: as §2, §3
# RS4; 11 = test: Antiproliferative activity, CCK-8, RS4; 11; type: cell-based; conditions: 11, Acute lymphoblastic leukemia, read-out: Cytotoxicity (IC50 μM)
# Method: as §2, §3
# U937 = test: Antiproliferative activity, CCK-8, U937; type: cell-based; conditions: U937, Human tissue cell lymphoma; read-out: Cytotoxicity (IC50 μM)
# Method: as §2, §3
# OPM-2 = test: Antiproliferative activity, CCK-8, OPM-2; type: cell-based; conditions: OPM-2, Human multiple myeloid leukemia; read-out: Cytotoxicity (IC50 μM)
# Method: as §2, §3
# KARPAS-1106P = test: Antiproliferative activity, CCK-8, KARPAS-1106P; type: cell-based; conditions: Primary mediastinal large B-cell lymphoma, read-out: Cytotoxicity (IC50 μM)
# Method: as §2, §3
# SU-DHL-6 = test: Antiproliferative activity, CCK-8, SU-DHL-6; type: cell-based; conditions: SU-DHL-6, Diffuse large B-cell lymphoma; read-out: Cytotoxicity (IC50 μM)
# Method: as §2, §3
# MOLP-8 = test: Antiproliferative activity, CCK-8, MOLP-8; type: cell-based; conditions: MOLP-8, Human multiple myeloma; read-out: Cytotoxicity (IC50 μM)
# Method: as §2, §3
# HDLM-2 = test: Antiproliferative activity, CCK-8, HDLM-2; type: cell-based; conditions: HDLM-2, Hodgkin's lymphoma; read-out: Cytotoxicity (IC50 μM)
# Method: as §2, §3
# TMD8 = test: Antiproliferative activity, CCK-8, TMD8; type: cell-based; conditions: TMD8, Diffuse large B-cell lymphoma; read-out: Cytotoxicity (IC50 μM)
# Method: as §2, §3
# SNU-5 = test: Antiproliferative activity, CCK-8, SNU-5; type: cell-based; conditions: SNU-5, Gastric cancer; read-out: Cytotoxicity (IC50 μM)
# Method: as §2, §3
# SK-BR-3 = test: Antiproliferative activity, CCK-8, SK-BR-3; type: cell-based; conditions: SK-BR-3, Breast cancer; read-out: Cytotoxicity (IC50 μM)
# Method: as §2, §3
# A2058 = test: Antiproliferative activity, CCK-8, A2058; type: cell-based; conditions: A2058, Melanoma; read-out: Cytotoxicity (IC50 μM)
# Method: as §2, §3
# VMM5A = test: Antiproliferative activity, CCK-8, VMM5A; type: cell-based; conditions: Melanoma, read-out: Cytotoxicity (IC50 μM)
# Method: as §2, §3
# [1] = system: human acute myeloid leukemia cells OCI-AML-3 transplanted tumor; test: OCI-AML-3 NOD/SCID mice transplanted tumor model; type: in vivo; conditions: oral 60 mg/kg
# Sequence of HDAC3 (O15379 whole entry): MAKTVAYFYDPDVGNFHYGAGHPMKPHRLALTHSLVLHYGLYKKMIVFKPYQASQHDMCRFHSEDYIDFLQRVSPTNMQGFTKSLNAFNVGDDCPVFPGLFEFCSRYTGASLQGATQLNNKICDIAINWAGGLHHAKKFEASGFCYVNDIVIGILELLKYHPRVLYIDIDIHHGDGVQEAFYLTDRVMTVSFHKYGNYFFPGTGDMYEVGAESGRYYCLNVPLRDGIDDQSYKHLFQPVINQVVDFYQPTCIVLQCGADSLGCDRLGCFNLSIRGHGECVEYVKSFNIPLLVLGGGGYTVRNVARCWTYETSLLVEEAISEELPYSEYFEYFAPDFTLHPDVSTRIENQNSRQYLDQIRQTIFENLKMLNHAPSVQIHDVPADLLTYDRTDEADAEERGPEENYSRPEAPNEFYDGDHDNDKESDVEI
# Sequence of HDAC3 (Q9Y618 395-489 partner): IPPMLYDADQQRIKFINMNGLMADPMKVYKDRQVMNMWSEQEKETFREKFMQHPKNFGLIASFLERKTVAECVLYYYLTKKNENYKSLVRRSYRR
# Sequence of HDAC6 (Q9UBN7 whole entry): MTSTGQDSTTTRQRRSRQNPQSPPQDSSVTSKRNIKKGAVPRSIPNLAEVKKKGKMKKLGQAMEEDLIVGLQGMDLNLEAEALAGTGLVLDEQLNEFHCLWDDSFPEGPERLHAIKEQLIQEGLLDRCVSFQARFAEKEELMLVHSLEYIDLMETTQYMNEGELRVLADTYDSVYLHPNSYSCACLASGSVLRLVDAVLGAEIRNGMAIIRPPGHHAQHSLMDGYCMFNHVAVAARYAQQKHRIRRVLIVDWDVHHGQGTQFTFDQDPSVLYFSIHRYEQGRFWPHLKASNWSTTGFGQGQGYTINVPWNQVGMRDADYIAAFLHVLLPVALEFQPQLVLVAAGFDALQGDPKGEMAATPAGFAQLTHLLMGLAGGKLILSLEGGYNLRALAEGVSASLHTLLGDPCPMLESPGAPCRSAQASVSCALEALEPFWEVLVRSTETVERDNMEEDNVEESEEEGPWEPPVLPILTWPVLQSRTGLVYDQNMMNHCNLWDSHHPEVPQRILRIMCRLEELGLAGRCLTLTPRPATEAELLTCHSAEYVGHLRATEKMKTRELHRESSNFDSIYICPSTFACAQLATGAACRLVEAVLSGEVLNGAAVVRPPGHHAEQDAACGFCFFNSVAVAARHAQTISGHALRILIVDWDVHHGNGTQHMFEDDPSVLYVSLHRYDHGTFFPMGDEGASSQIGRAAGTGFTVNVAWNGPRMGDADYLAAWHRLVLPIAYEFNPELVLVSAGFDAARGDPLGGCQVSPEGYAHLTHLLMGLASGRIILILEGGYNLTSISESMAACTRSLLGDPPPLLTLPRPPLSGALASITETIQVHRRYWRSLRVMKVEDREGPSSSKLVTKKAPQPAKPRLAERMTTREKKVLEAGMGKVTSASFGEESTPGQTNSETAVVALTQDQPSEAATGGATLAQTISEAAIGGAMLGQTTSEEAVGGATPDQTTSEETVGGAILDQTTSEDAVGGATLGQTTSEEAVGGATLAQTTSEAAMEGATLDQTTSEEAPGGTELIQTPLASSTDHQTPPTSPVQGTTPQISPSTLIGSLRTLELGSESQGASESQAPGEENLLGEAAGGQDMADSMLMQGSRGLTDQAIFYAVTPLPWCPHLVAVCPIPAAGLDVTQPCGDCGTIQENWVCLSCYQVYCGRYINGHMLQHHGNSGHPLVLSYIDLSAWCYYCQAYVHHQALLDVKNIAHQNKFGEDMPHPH
compound,measurement,setting,value
C[C@@H](c1ccc(C(=O)Nc2ccc(F)cc2N)cc1)n1nc(-c2ccc(CN(C)C)cc2)ccc1=O [Compound I-1],IC50,HDAC6,> 10000 nM
same,IC50,HCT-116 cells,220 ± 4 nM
same,IC50,SKM-1 cells,140 ± 8 nM
same,IC50,HDAC3,420 ± 105 nM
same,IC50,MV-4-11,0.088 ± 0.002 µM
same,IC50,OCI-AML3,0.121 ± 0.003 µM
same,IC50,CMK,0.131 ± 0.011 µM
same,IC50,OCI-LY-3,0.198 ± 0.048 µM
same,IC50,HH,0.219 ± 0.093 µM
same,IC50,OCI-LY-10,0.297 ± 0.042 µM
same,IC50,Z138,0.363 ± 0.046 µM
same,IC50,RS4; 11,0.412 ± 0.129 µM
same,IC50,U937,0.435 ± 0.254 µM
same,IC50,OPM-2,0.436 ± 0.222 µM
same,IC50,KARPAS-1106P,0.498 ± 0.009 µM
same,IC50,SU-DHL-6,0.576 ± 0.066 µM
same,IC50,MOLP-8,0.632 ± 0.066 µM
same,IC50,HDLM-2,0.647 ± 0.404 µM
same,IC50,TMD8,0.807 ± 0.142 µM
same,IC50,SNU-5,0.314 ± 0.011 µM
same,IC50,SK-BR-3,0.72 ± 0.032 µM
same,IC50,A2058,0.562 ± 0.011 µM
same,IC50,VMM5A,0.856 ± 0.018 µM
same,relative tumor proliferation rate (T/C),"[1]; OCI-AML-3 transplanted tumor, 14 days",7.75%
same,body weight of mice,[1]; during the transplanted tumor experiment,remained basically unchanged
